According to the CheMixHub drug solubility set:

Experiment: xn = mol fraction of the nth substance listed, in the solute-free solvent

CCCSc1ccc2[nH]c(NC(=O)OC)nc2c1 + CCO + O
solubility (g/100 g solution)
Conditions	x2 = 0.0416	x2 = 0.0891	x2 = 0.1435	x2 = 0.2068	x2 = 0.2811	x2 = 0.3697	x2 = 0.4771	x2 = 0.61	x2 = 0.7787
288.95 K	0.00065	0.00225	0.0048	0.00531	0.0142	0.031	0.0476	0.0657	0.0669
293.15 K	0.00113	0.00279	0.0063	0.00878	0.0211	0.0396	0.0538	0.0706	0.0729
297.15 K	0.00141	0.0033	0.00736	0.0137	0.025	0.0476	0.0643	0.0856	0.0933
301.25 K	0.00181	0.00417	0.00932	0.0172	0.0324	0.0565	0.0753	0.0966	0.11
305.15 K	0.00257	0.00518	0.0114	0.0207	0.04	0.0682	0.0957	0.124	0.137
309.15 K	0.00328	0.00624	0.0127	0.025	0.048	0.0834	0.118	0.162	0.169
313.05 K	0.00395	0.00729	0.0156	0.0318	0.0594	0.104	0.149	0.204	0.208
317.25 K	0.00594	0.00852	0.0188	0.0386	0.0732	0.12	0.185	0.242	0.25

FC(F)(F)c1cccnc1Cl + CCOC(C)=O + CCCCO
solubility (g/100 g solution)
Conditions	263.15 K	268.15 K	273.15 K	278.15 K	283.15 K	288.15 K	293.15 K	298.15 K	303.15 K
x2 = 0.2518	27.4	32.6	37.9	43.8	50.9	57.7	64.8	71.6	77.6
x2 = 0.4023	33.5	38.3	42.5	49.6	54.8	61.4	68	74.3	80.5
x2 = 0.5999	37.2	42.5	47.4	53.5	60.2	66.6	72.6	78.8	84.3
x2 = 0.7998	42.4	47.7	52.6	59	64.3	70.8	76.8	82.4	87.4

Cc1c(Br)c(=O)n(C2CCCC2)c2nc(Cl)ncc12 + CCOC(C)=O + CCO
solubility (g/100 g solution)
Conditions	278.15 K	283.15 K	288.15 K	293.15 K	298.15 K	303.15 K	308.15 K	313.15 K	318.15 K	323.15 K
x2 = 0.1	0.181	0.219	0.26	0.312	0.368	0.429	0.506	0.589	0.684	0.79
x2 = 0.2	0.238	0.286	0.341	0.403	0.475	0.553	0.645	0.746	0.86	0.987
x2 = 0.3	0.297	0.353	0.418	0.491	0.574	0.668	0.775	0.892	1.02	1.17
x2 = 0.4	0.349	0.414	0.492	0.571	0.665	0.77	0.888	1.02	1.17	1.32
x2 = 0.5	0.396	0.467	0.548	0.639	0.742	0.856	0.984	1.13	1.28	1.45
x2 = 0.6	0.438	0.514	0.602	0.701	0.811	0.931	1.07	1.22	1.38	1.57
x2 = 0.7	0.478	0.56	0.652	0.756	0.873	1	1.15	1.3	1.48	1.67
x2 = 0.8	0.52	0.608	0.706	0.817	0.939	1.08	1.23	1.39	1.57	1.77
x2 = 0.9	0.571	0.665	0.77	0.888	1.02	1.16	1.32	1.5	1.69	1.9

N#CCNC(=O)c1cnccc1C(F)(F)F + CCOC(C)=O + CCO
solubility (g/100 g solution)
Conditions	283.15 K	288.15 K	293.15 K	298.15 K	303.15 K	308.15 K	313.15 K	318.15 K	323.15 K
x2 = 0.2	4.4	5.22	6.22	7.38	8.72	10.2	12	14	16.2
x2 = 0.4	5.66	6.57	7.58	8.78	10.1	11.6	13.2	15.2	17.2
x2 = 0.6	5.43	6.27	7.24	8.3	9.5	10.8	12.3	13.9	15.6
x2 = 0.8	4.38	5.03	5.77	6.59	7.53	8.56	9.69	10.9	12.3

FC(F)(F)c1cccnc1Cl + CN(C)C=O + CCCCO
solubility (g/100 g solution)
Conditions	263.15 K	268.15 K	273.15 K	278.15 K	283.15 K	288.15 K	293.15 K	298.15 K	303.15 K
x2 = 0.2885	31.3	36.7	42.1	48.9	55.3	61.7	68.1	74.6	81.4
x2 = 0.4479	37.6	43.2	48.7	55.3	61.5	67.7	73.7	79.9	85.9
x2 = 0.6438	43.1	48.9	54.2	61.1	67.5	73.7	79.7	85.6	90.9
x2 = 0.8281	50.8	56.5	61.9	68.2	74	79.6	85	90.4	95.1
